In this experiment the target is T1, Son of sevenless homolog 1 (Homo sapiens, UniProt Q07889).
T1 sequence (Q07889 whole entry): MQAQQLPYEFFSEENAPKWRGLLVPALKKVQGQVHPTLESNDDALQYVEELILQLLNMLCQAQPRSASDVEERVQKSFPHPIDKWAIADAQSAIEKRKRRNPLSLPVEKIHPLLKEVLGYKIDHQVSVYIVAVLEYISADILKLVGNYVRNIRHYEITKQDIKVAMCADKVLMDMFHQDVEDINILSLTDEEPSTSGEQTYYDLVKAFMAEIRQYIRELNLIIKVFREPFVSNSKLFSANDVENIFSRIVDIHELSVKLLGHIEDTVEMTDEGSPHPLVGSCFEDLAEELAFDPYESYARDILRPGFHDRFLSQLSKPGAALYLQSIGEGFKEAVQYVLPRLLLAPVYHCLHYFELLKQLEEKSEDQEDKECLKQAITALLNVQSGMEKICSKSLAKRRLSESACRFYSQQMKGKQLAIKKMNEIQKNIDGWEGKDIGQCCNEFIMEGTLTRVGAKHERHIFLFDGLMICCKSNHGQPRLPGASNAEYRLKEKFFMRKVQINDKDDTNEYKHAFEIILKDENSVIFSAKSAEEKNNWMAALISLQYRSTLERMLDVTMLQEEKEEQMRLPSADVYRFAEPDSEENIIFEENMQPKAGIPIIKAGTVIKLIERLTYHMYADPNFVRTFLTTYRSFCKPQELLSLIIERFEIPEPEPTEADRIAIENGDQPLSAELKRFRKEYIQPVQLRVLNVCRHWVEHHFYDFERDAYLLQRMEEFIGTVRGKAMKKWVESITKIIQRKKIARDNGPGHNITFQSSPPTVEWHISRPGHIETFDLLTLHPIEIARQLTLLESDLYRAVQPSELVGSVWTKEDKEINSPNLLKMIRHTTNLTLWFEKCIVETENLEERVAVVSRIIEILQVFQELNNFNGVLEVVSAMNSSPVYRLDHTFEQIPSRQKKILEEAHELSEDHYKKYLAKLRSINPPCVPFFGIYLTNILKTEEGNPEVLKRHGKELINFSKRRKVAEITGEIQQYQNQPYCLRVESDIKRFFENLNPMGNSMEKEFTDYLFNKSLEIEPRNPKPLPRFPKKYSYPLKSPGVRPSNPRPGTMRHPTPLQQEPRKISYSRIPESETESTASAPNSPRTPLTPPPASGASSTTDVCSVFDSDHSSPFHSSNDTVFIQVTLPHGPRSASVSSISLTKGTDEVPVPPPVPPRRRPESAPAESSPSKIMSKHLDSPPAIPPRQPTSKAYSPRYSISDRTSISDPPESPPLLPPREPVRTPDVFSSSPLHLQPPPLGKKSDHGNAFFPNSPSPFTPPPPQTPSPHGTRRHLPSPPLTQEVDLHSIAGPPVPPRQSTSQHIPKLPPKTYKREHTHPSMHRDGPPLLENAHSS
Nature of the experiment: Ras-SOS Interaction Assay. The source says:
The ability of any compound of the present disclosure to reduce a Ras protein signaling output by, e.g., interfering or disrupting interaction (or binding) between SOS1 and a Ras protein can be assessed in vitro. For example, the equilibrium interaction of human SOS1 (hSOS1) with human wildtype Kras or K-Ras mutant (e.g., hK-Ras G12C mutant, or hK-RasG12C) can be assessed as a proxy or an indication for a subject compound's ability to inhibit SOS. Detection of such interaction is achieved by measuring homogenous time-resolved fluorescence resonance energy transfer (HTRF) from (i) a fluorescence resonance energy transfer (FRET) donor (e.g., antiGST-Europium) that is bound to GST-tagged K-RasG12C to (ii) a FRET acceptor (e.g., anti-6His-XL665) bound to a His-tagged hSOS1. […] A Ras working solution is prepared in assay buffer containing typically 10 nM of the protein construct (e.g., GST-tagged hK-RasG12C) and 2 nM of the FRET donor (e.g., antiGST-Eu(K) from Cisbio, France). A SOS1 working solution is prepared in assay buffer containing typically 10 nM of the protein construct (e.g., His-hSOS1) and 10 nM of the FRET acceptor (e.g., anti-6His-XL665 from Cisbio, France). An inhibitor control solution is prepared in assay buffer containing 10 nM of the FRET acceptor without the SOS1 protein. A fixed reaction mixture with or without test compound is transferred into a 384-well plate. Ras working solution is added to all wells of the test plate. SOS1 working solution is added to all wells except for those that are subsequently filled the inhibitor control solution.

`COc1nc2nc(C)nc(N[C@H](C)c3cccc(C(F)F)c3F)c2cc1C1CCN(C(=O)NC2COC2)CC1` [US11648254, Compound 116]: the IC50 is under 100 nM. The value for `COc1nc2nc(C)nc(N[C@H](C)c3cccc(C(F)(F)F)c3C)c2cc1C1CCS(=O)(=O)CC1` [US11648254, Compound 118] was under 100 nM; that for `COc1nc2nc(C)nc(N[C@H](C)c3cccc(C(F)F)c3F)c2cc1[C@H]1C[C@@H](NC(=O)C2COC2)C1` [US11648254, Compound 125] was under 100 nM. Take `Cc1nc(N[C@H](C)c2cccc(C(F)F)c2F)c2cc(S(=O)(=O)C3CCN(C)CC3)c(Cl)nc2n1` [US11648254, Compound 132]: the IC50 was under 100 nM. The value for `COc1nc2nc(C)nc(N[C@H](C)c3cccc(C(F)(F)C4CCCO4)c3F)c2cc1C1CCS(=O)(=O)CC1` (some centres not stated) [US11648254, Compound 148] was under 100 nM. As for `COc1nc2nc(C)nc(N[C@H](C)c3cccc(C(C)(F)F)c3F)c2cc1C1CCS(=O)(=O)CC1` [US11648254, Compound 150], the figure is under 100 nM.

On to `COCCOc1nc2nc(C)nc(N[C@H](C)c3cccc(C(F)F)c3F)c2cc1C1(C#N)CC1` [US11648254, Compound 151], for which the IC50 was under 100 nM. Consider `COc1nc2nc(C)nc(N[C@H](C)c3cccc(C(F)(F)C4CN(C)C4)c3)c2cc1N1CCS(=O)(=O)CC1` [US11648254, Compound 272], for which the IC50 is under 100 nM. The value for `Cc1nc(N[C@H](C)c2cccc(C(F)F)c2F)c2cc(C3(C#N)CC3)c(O[C@H]3CCOC3)nc2n1` [US11648254, Compound 297] was under 100 nM; that for `COc1nc2ncnc(N[C@H](C)c3cccc(C(F)(F)F)c3C)c2cc1C1CCS(=O)(=O)CC1` [US11648254, Compound 373] was under 100 nM. As for `COc1nc2ncnc(N[C@H](C)c3cccc(C(F)(F)F)c3C)c2cc1C1CCN(C2CCOCC2)CC1` [US11648254, Compound 374], the figure is under 100 nM; as for `COc1nc2nc(C)nc(N[C@H](C)c3cccc(C(F)(F)C4CCN(C(C)C)CC4)c3F)c2cc1C1(C#N)CC1` [US11648254, Compound 377], under 100 nM.

Usually IC50 stands for the midpoint of a concentration-inhibition curve. Higher therefore signals a need for much substance.

Values taken from BindingDB's records for patent US11648254 (Kumquat Biosciences, 2023).
